Read-outs that look alike come from different tables or passages of the source.
How the values were obtained:
[1] = test system: SH-SY5Y cells; assay: Nuclear count from microscopy images (cellular growth and toxicity); note: reference of the scale not given here
[2] = test system: SH-SY5Y cells; note: reference of the scale not given here
[3] = test system: endogenous TFE3; assay: TFE3 nuclear translocation, immunocytochemistry high-content imaging; type: cell-based
[4] = test system: endogenous TFEB; assay: TFEB nuclear translocation, immunocytochemistry high-content imaging; type: cell-based
[5] = test system: SH-SY5Y cells; assay: AK (adenylate kinase) release ToxiLight cytotoxicity assay; note: reference of the scale not given here
[6] = PKIS2 primary screening, DQ Red BSA intensity
[7] = PKIS2 primary screening, DQ Red BSA spot count
[8] = PKIS2 primary screen, DQ Red BSA intensity
[9] = PKIS2 primary screen, DQ Red BSA spot count

SMILES | Nuclear Count ([1]; PKIS2 primary screening) | DQ Intensity ([2]; PKIS2 primary screening) | DQ Spot ([2]; PKIS2 primary screening) | TFE3 % ([3]; PKIS2 primary screening) [%] | TFEB % ([4]; PKIS2 primary screening) [%] | AK ([5]; PKIS2 primary screening) | DQ Intensity [2, 6] | DQ Spot [2, 7] | other results
C[C@@H](Oc1cc(-n2cnc3ccc(NC(=O)NC(C)(C)C)cc32)sc1C(N)=O)c1ccccc1Cl [UNC10225287A] | 136.32 | 115.96 | 109.60 | 9.35 | 3.50 | 76.21 | – | – | –
c1ccc(-c2n[nH]cc2-c2ccnc3ccccc23)nc1 [UNC10225289A] | 134.93 | – | – | – | – | 102.26 | – | – | DQ Intensity [2]: 80.70; DQ Spot [2]: 82.58; TFE3 % [3]: 7.71%; TFEB % [4]: 2.12%
COc1ccc2cc(-c3nc(-c4ccccc4C(C)C)[nH]c3-c3ccncc3)ccc2c1 [UNC10225291A] | 105.82 | – | – | 9.24 | 11.56 | 85.35 | 102.38 | 102.77 | –
COc1cccc(C2=C(N(C)c3ccccc3)C(=O)NC2=O)c1 [UNC10225293A] | 78.26 | – | – | 13.51 | 4.50 | 74.50 | 96.89 | 106.44 | –
COc1ccccc1CNC(=O)c1cc(C(=O)c2ccccc2C)c[nH]1 [UNC10225294A] | – | – | – | – | – | – | – | – | Nuclear Count ([1]; PKIS2 primary screen): 105.84; DQ Intensity [2, 8]: 126.95; DQ Spot [2, 9]: 127.30; TFE3 % ([3]; PKIS2 primary screen): 19.95%; TFEB % ([4]; PKIS2 primary screen): 4.46%; AK ([5]; PKIS2 primary screen): 95.17
Cn1cc(-c2ccc3c(c2)CCN3C(=O)Cc2cccc(F)c2)c2c(N)ncnc21 [UNC10225297A] | 104.97 | 118.40 | 112.51 | 15.69 | 6.82 | 109.17 | – | – | –
NS(=O)(=O)c1cccc(N/C=C2\C(=O)Nc3ccc(S(=O)(=O)Cc4c(Cl)cccc4Cl)cc32)c1 [UNC10225298A] | – | – | – | – | – | – | – | – | Nuclear Count ([1]; PKIS2 primary screen): 112.41; DQ Intensity [2, 8]: 100.02; DQ Spot [2, 9]: 99.79; TFE3 % ([3]; PKIS2 primary screen): 5.33%; TFEB % ([4]; PKIS2 primary screen): 5.78%; AK ([5]; PKIS2 primary screen): 117.06
Nc1nc(-c2ccccc2F)c(-c2ccnc3ccccc23)s1 [UNC10225301A] | 129.96 | – | – | 14.12 | 2.45 | 75.40 | 64.84 | 87.10 | –
CCC(CC)(CC)n1cnc2c(N)ncnc21 [UNC10225302A] | 100.18 | 92.29 | 100.17 | 9.37 | 11.64 | 115.78 | – | – | –
COc1cccc2c(-c3ccncc3)c(-c3ccc(F)cc3)nn12 [UNC10225305A] | 99.48 | – | – | 7.73 | 7.57 | 95.93 | 96.09 | 98.66 | –
Cl.Cl.NCC(NC(=O)c1cc(-c2cccnc2)c(-c2ccnc3[nH]ccc23)s1)c1ccccc1 (stereo not drawn) [UNC10225315A] | 113.28 | – | – | 8.64 | 2.45 | 87.17 | 78.29 | 90.57 | –
COc1cc(Nc2nccc(-c3c(-c4cccc(NC(=O)c5c(F)cccc5F)c4)nn4ccccc34)n2)cc(OC)c1OC [UNC10225318A] | 94.38 | 105.65 | 109.19 | 5.80 | 6.03 | 96.57 | – | – | –
Fc1ccc(-c2ncn(CCCN3CCOCC3)c2-c2cccnc2)cc1 [UNC10225320A] | 104.41 | – | – | 16.30 | 7.10 | 125.08 | 94.06 | 100.66 | –
Cc1ccc2c(-c3ccncc3)c(-c3ccc(F)cc3)nn2c1.Cl [UNC10225321A] | 114.41 | – | – | 14.14 | 3.59 | 67.03 | 88.59 | 94.42 | –
CC(C)c1ccc(O)cc1Nc1ccnc2ccc(C(F)(F)F)cc12 [UNC10225322A] | 91.30 | – | – | 14.84 | 7.26 | 93.97 | 103.64 | 104.80 | –
O=C(Nc1cccc(-c2nn3ccccc3c2-c2ccnc(Nc3cccc(C(F)(F)F)c3)n2)c1)c1c(F)cccc1F [UNC10225325A] | 61.45 | 102.24 | 131.00 | 14.69 | 6.17 | 71.36 | – | – | –
O=c1cc(N2CCOCC2)nc2n(Cc3cccc(F)c3)ccn12 [UNC10225332A] | 95.52 | 100.57 | 98.19 | 15.66 | 6.97 | 128.93 | – | – | –

From article PMC9851200, “Multiparameter phenotypic screening for endogenous TFEB and TFE3 translocation identifies novel chemical series modulating lysosome function” (Autophagy, 2022)
